Patent publication US20200261485A1, “COMPOSITIONS COMPRISING 3'-O-GLUCURONIDE EPICATECHIN AND METHODS OF MAKING AND USING SUCH COMPOSITIONS” (NESTEC S.A., priority 2015, published 2020)
“Also recorded” adds a separate entry of the source. Values belong to the compound of their own block, whether it stands above or below them.

Key:
h-TRPA1 = target: T1, h-TRPA1 (Homo sapiens, UniProt O75762); experiment: Calcium imaging of activation of CHO cells expressing h-TRPA1; assay type: cell-based; details: for Activity vs hTRPA1: CHO cells expressing h-TRPA1; for TRPA1 agonism (result in words): activation of CHO cells expressing h-TRPA1, FIGS. 4, 6, 7
T1 construct: expressed in transfected cells; host or cells: CHO cells
Procedure: Specifically, the activation of CHO cells expressing h-TRPA1 was tested according to the calcium imaging method described in Riera et al. (Riera, C. E., Vogel, H., Simon, S. A., Damak, S., & le Coutre, J. Sensory attributes of complex tasting divalent salts are mediated by TRPM5 and TRPV1 channels. J. Neurosci. 29, 2654-2662 (2009)).

[1] = tested on: endothelial nitric oxide synthase; experiment: Phosphorylation of endothelial nitric oxide synthase (western blot) in isolated aortic rat rings; assay type: cell-based; design: dose or concentration left out as unconfirmed; details: isolated Wistar rat aortic rings, 1 h incubation, FIG. 12
Procedure: Furthermore, comparative experiments were conducted on the expression of endothelial nitric oxide synthase in isolated aortic rat rings.
Thoracic aortas were obtained from male adults Wistar rats after euthanasia. Each aorta was carefully dissected and harvested cleaned of excess tissue and cut into three equal segments, approximately 7 mm long. All aortic rings were pre-incubated for 30 min in Krebs solution (20 mM Hepes buffer, pH 7.4, containing 119 mM NaCl, 4.7 mM KCl, 1 mM MgSO4, 0.4 mM NaH2PO4, 0.15 mM Na2HPO4, 5 mM NaHCO3, 1.25 mM CaCl2, 5.5 mM glucose) aerated with 95% O2 and 5% CO2 at 37° C. and then incubated with vehicle (DMSO 1%) or the different metabolites for 1 h. Metabolites were first dissolved in DMSO 1% and tested in a final concentration […]. At the end of the incubation period aortic rings were frozen at −70° C. until the homogenate preparation. Homogenates for western blot and western blot determinations were carried out by the regular procedures and phosphorylation level of endothelial nitric oxide synthase was evaluated.

[2] = concentration (max) tested 100 mM
[3] = concentration (max) tested 3 mM

T1 sequence (O75762 whole entry): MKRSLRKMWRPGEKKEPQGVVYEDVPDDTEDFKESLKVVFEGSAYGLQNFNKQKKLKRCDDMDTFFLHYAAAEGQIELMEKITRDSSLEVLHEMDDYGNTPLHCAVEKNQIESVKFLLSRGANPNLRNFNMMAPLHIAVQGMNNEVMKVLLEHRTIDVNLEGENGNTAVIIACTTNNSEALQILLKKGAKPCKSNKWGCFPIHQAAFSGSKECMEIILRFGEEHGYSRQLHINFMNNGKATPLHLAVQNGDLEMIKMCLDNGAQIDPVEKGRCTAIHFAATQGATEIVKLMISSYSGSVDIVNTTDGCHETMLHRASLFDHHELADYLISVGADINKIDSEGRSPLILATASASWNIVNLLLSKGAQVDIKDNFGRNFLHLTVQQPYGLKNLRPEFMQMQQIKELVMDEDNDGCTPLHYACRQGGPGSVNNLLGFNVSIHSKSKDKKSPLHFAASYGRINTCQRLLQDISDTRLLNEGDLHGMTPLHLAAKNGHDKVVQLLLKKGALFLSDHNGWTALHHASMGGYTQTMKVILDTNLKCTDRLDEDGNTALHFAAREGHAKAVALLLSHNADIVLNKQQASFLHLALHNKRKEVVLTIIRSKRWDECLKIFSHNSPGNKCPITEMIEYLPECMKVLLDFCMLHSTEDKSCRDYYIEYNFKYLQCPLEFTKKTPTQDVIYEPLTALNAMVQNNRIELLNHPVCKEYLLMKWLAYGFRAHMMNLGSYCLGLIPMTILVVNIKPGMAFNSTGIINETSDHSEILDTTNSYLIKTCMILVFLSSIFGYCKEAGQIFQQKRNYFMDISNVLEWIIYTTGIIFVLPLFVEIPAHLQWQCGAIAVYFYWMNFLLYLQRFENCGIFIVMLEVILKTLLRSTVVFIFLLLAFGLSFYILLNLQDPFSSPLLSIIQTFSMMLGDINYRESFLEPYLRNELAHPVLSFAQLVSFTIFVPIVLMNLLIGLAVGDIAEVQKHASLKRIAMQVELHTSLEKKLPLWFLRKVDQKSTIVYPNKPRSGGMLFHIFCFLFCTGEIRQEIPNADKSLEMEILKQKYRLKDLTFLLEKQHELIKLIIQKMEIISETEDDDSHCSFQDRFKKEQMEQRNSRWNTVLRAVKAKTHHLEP

Compound: O=C(O)[C@H]1O[C@@H](Oc2ccc([C@H]3Oc4cc(O)cc(O)c4C[C@H]3O)cc2O)[C@H](O)[C@@H](O)[C@@H]1O [4′-O-glucuronide epicatechin]
eNOS phosphorylation relative to control and chemically similar epicatechins [1]: increased eNOS phosphorylation

Compound: CC(C)c1ccc(NC(=O)Cn2cnc3c2c(=O)n(C)c(=O)n3C)cc1 [HC030031]
Blockage of the activation of hTRPA1 by 3′-O-glucuronide epicatechin (h-TRPA1; selective hTRPA1 antagonist added, FIG. 9): blocked the activation of hTRPA1

Compound: COc1ccc(C2CC(=O)c3c(O)cc(O)cc3O2)cc1O[C@@H]1O[C@H](C(=O)O)[C@@H](O)[C@H](O)[C@H]1O (stereo partly drawn) [Hesperetin-3-O-Glucuronide]
Activity vs hTRPA1 (h-TRPA1; [3]): Inactive

Compound: Hesperetin-4-O-Glucuronide
Activity vs hTRPA1 (h-TRPA1; [3]): Inactive

Compound: Hesperetin-7-3-O-Glucuronide
Activity vs hTRPA1 (h-TRPA1; [3]): Inactive

Now from value to compound, other results behind:

Activity vs hTRPA1 (h-TRPA1; concentration (max) tested 133 mM): Active
EC50 (h-TRPA1; activation of hTRPA1 in CHO cells): ~80 mM
Compound: O=C(O)[C@H]1O[C@@H](Oc2cc([C@H]3Oc4cc(O)cc(O)c4C[C@H]3O)ccc2O)[C@H](O)[C@@H](O)[C@@H]1O [3′-O-glucuronide epicatechin]
TRPA1 agonism (result in words) (h-TRPA1): is a TRPA1 agonist; also recorded: agonist of the cation channel of TRPA1
Concentration dependence of activation of CHO cells expressing h-TRPA1 (h-TRPA1; different concentrations, dose-response curve, FIGS. 10 and 11): activation occurs in a concentration-dependent manner
eNOS phosphorylation relative to control and chemically similar epicatechins [1]: increased eNOS phosphorylation

Activity vs hTRPA1 (h-TRPA1; [2]): Inactive
TRPA1 agonism (result in words) (h-TRPA1; listed as 3′-methyl epicatechin): not TRPA1 agonists
Compound: COc1cc([C@H]2Oc3cc(O)cc(O)c3C[C@H]2O)ccc1O [3′-O-methyl epicatechin]
TRPA1 agonism (result in words) (h-TRPA1): is not a TRPA1 agonist; also recorded: not TRPA1 agonists

Activity vs hTRPA1 (h-TRPA1; [2]): Inactive
Compound: O=S(=O)(O)Oc1cc([C@H]2Oc3cc(O)cc(O)c3C[C@H]2O)ccc1O [3′-O-sulfate epicatechin]
TRPA1 agonism (result in words) (h-TRPA1): is not a TRPA1 agonist; also recorded: not TRPA1 agonists

Activity vs hTRPA1 (h-TRPA1; [2]): Inactive
Compound: COc1cc(C2Oc3cc(OS(=O)(=O)O)cc(O)c3CC2O)ccc1O (stereo not drawn) [3′-methyl-7-sulfate-EC]

Activity vs hTRPA1 (h-TRPA1; [2]): Inactive
Compound: COc1ccc(C2Oc3cc(O)cc(O)c3CC2O)cc1O (stereo not drawn) [4′-methyl-EC]

Activity vs hTRPA1 (h-TRPA1; [2]): Inactive
Compound: O=S(=O)(O)Oc1ccc(C2Oc3cc(O)cc(O)c3CC2O)cc1O (stereo not drawn) [4′-sulfate-EC]
